Conditions: 101.33 kPa, Liquid

CCOC(=O)CC(C)=O [ethyl 3-oxobutanoate]
Conditions	mass density [kg/m3]
278.15 K	1043.1
288.15 K	1034.5
298.15 K	1023.5
313.15 K	1008
328.15 K	992.1
338.15 K	981.9
348.15 K	971.4
